Series [1] deals with E3 ubiquitin-protein ligase Mdm2 (Homo sapiens, UniProt Q00987). The series is described as follows: Binding affinity to MDM2 (1 to 118 residues) (unknown origin) assessed as inhibition constant incubated for 1 hr measured by fluorescence polarization assay. (Polarisation of emitted light reports the rotation of a fluorescent probe.)
Series [2] deals with HCT-116. Put plainly: Antiproliferative activity against human HCT-116 cells overexpressing MDM2 assessed as cell growth inhibition incubated for 72 hrs by CCK-8 assay. The settings on record: HCT-116, 72 h. In kind it is functional, cell-based.
Series [3] concerns SJSA-1. Put plainly: Antiproliferative activity against human SJSA-1 cells overexpressing MDM2 assessed as cell growth inhibition incubated for 72 hrs by CCK-8 assay. The note with it: SJSA-1, 72 h. Type of series: functional, cell-based.
Series [4] deals with T1, Protein Mdm4 (Homo sapiens, UniProt O15151).
T1 sequence (O15151 whole entry): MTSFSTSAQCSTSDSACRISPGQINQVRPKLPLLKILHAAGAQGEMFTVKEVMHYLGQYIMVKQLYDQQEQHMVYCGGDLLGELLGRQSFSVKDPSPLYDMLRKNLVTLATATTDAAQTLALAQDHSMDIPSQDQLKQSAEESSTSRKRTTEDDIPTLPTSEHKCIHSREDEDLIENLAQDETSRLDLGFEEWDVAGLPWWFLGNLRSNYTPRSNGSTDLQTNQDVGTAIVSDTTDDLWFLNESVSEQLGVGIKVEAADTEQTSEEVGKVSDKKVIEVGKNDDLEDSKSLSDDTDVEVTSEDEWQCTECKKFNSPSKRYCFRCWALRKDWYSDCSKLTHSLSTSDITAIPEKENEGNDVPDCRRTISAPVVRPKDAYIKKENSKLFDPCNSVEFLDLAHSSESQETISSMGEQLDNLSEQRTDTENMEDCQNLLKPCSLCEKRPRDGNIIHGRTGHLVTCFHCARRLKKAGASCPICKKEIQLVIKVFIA
The series is described as follows: Binding affinity to MDMX (1 to 118 residues) (unknown origin) assessed as inhibition constant incubated for 1 hr measured by fluorescence polarization assay.

The subject of series [5] is SH-SY5Y. Put plainly: Antiproliferative activity against human SH-SY5Y cells overexpressing MDMX assessed as cell growth inhibition incubated for 72 hrs by CCK-8 assay. Type of series: functional, cell-based. (Tetrazolium assays rely on reduction of a dye to a coloured formazan, in cell work by metabolically active cells.)
A short description of series [6]: Antiproliferative activity against human HCT116-p53-null cells overexpressing MDMX assessed as cell growth inhibition incubated for 72 hrs by CCK-8 assay. Type of series: functional, cell-based.
The test system of series [7] is SH-SY5Y. Put plainly: Antiproliferative activity against human SH-SY5Y cells overexpressing MDMX assessed as cell growth inhibition incubated at 10 uM for 72 hrs by CCK-8 assay relative to control. Type of series: functional.
The test system of series [8] is HCT-116. Put plainly: Antiproliferative activity against human HCT-116 cells overexpressing MDM2 assessed as cell growth inhibition incubated at 10 uM for 72 hrs by CCK-8 assay relative to control. In kind it is functional.
The test system of series [9] is SH-SY5Y. The series is described as follows: Inhibition of colony formation in human SH-SY5Y cells incubated at 0.6 uM for 8 to 15 days measured by crystal violet staining based microscopic analysis. Type of series: functional, cell-based. The note with it: time 8-15 day.
In series [10] the test system is HCT-116. The series is described as follows: Inhibition of colony formation in human HCT-116 cells incubated at 0.6 uM for 8 to 15 days measured by crystal violet staining based microscopic analysis. In kind it is functional, cell-based. The note with it: time 8-15 day.
Series [11] can be described thus: Cytotoxicity against human BEAS-2B cells incubated for 72 hrs by CCK-8 assay. Type of series: toxicity, cell-based.
In series [12] the test system is HCT-116. Put plainly: Inhibition of cell migration in human HCT-116 cells measured using transwell chamber by crystal violet staining based microscopic analysis. Type of series: functional. The note with it: dose 0.2-0.6 µM.
Series [13] deals with HCT-116. Put plainly: Inhibition of cell invasion in human HCT-116 cells measured using transwell chamber by crystal violet staining based microscopic analysis. Type of series: functional. The settings on record: dose 0.2-0.6 µM.
The test system of series [14] is SH-SY5Y. The series is described as follows: Inhibition of cell invasion in human SH-SY5Y cells measured using transwell chamber by crystal violet staining based microscopic analysis. The note with it: dose 0.2-0.6 µM. Type of series: functional.
For series [15], the system named is SH-SY5Y. Put plainly: Inhibition of cell migration in human SH-SY5Y cells measured using transwell chamber by crystal violet staining based microscopic analysis. Type of series: functional. The note with it: dose 0.2-0.6 µM.
Series [16] can be described thus: Cytotoxicity against human LO2 cells incubated for 72 hrs by CCK-8 assay. In kind it is toxicity, cell-based, L02.

Calls of active or inactive are those of the source. The calls are words filed in the database; no cut-off is given here.

E3 ubiquitin-protein ligase Mdm2, sequence (Q00987 whole entry, the tested form may be a part): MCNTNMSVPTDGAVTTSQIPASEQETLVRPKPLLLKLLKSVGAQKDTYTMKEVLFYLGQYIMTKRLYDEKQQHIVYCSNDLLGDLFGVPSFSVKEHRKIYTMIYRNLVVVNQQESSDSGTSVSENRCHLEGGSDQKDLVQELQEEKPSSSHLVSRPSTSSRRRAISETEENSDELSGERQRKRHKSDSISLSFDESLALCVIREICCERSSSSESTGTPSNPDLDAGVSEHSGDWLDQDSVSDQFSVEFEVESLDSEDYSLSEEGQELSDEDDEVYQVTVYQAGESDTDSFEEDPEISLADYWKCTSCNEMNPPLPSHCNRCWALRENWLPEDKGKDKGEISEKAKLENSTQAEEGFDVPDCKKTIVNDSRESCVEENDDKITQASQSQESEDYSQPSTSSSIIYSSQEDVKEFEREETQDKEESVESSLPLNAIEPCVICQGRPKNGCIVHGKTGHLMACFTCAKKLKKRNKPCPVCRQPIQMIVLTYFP

Broadly, the Ki is a measure of affinity in units of concentration, obtained from inhibition or displacement. What is called IC50 is the point on the concentration scale where inhibition reaches its midpoint. On to `COc1ccc(S(=O)(=O)N(c2ccc(Cl)cc2)C(C(=O)c2ccc(Cl)cc2)c2ccc(F)cc2Cl)cc1` (stereo unspecified), for which the figures for the Ki in series [1] and in [4] were 0.65 µM and 15.6 µM, respectively. The IC50 in [2] is 12 µM; in series [3], 10.4 µM; in series [5] it was 9.64 µM; in series [6], 30.5 µM.

For `O=C(O)c1ccc(C(=O)N(c2ccc(Cl)cc2)C(C(=O)c2ccc(Cl)cc2)c2ccc(F)cc2Cl)cc1` (stereo unspecified), the values for the Ki in series [1] and in [4] were 0.32 µM and 4.22 µM, respectively. In addition, the IC50 stood at 2.26 µM in series [2], 1.95 µM in series [3], 1.03 µM in series [5] and 16.8 µM in series [6].

Take `CC(=O)N1CCN(C(=O)CCC(=O)N(c2ccc(Cl)cc2)C(C(=O)c2ccc(Cl)cc2)c2ccc(F)cc2Cl)CC1` (stereo unspecified): the Ki was determined as 0.35 µM in series [1] and 7.43 µM in series [4]. In addition, the IC50 in series [2] came to 4.21 µM; in [3] it was 3.79 µM; in series [5] it was 4.1 µM; in series [6], 26.8 µM.

Take `O=C(CCC(=O)N(c1ccc(Cl)cc1)C(C(=O)c1ccc(Cl)cc1)c1ccc(F)cc1Cl)NCCN1CCOCC1` (stereo unspecified): the Ki was found to be 0.56 µM in series [1] and 13 µM in series [4]. Besides, the half-maximal inhibitory concentration (IC50) stood at 7.69 µM in series [2], 6.74 µM in series [3], 5.44 µM in [5] and 28.4 µM in series [6].

On to `CCN1CCN(C(=O)CCC(=O)N(c2ccc(Cl)cc2)C(C(=O)c2ccc(Cl)cc2)c2ccc(F)cc2Cl)CC1` (stereo unspecified), for which the Ki was determined as 0.69 µM in series [1] and 9.37 µM in series [4]. The IC50 is 6.24 µM in series [2], 5.93 µM in [3], 5.82 µM in series [5] and 20.9 µM in [6].

By inhibition is commonly meant the percentage by which the read-out fell short of the control. For the compound `O=C(c1ccc(Cl)cc1)C(Cc1cc(Cl)cc(Cl)c1)C(=O)c1cc(F)ccc1F` (stereo unspecified), the Ki in series [1] came out at 7.69 µM. Also, the inhibition at 10 µM in series [7] worked out at 9.49%; in series [8], 33.5%.

Turning to `COC(=O)c1ccc(C(=O)N(c2ccc(Cl)cc2)C(C(=O)c2ccc(Cl)cc2)c2ccc(F)cc2Cl)cc1` (stereo unspecified), the values for the Ki in series [1] and in [4] were 1.06 µM and 12.9 µM, respectively. In addition, the IC50 in series [2] came out at 8.86 µM; in series [3] it was 10.2 µM; in [5], 7.33 µM; in [6] it was 20.8 µM.

For the compound `Cc1cccc(CC(C(=O)c2ccc(Cl)cc2)C(=O)c2cc(F)ccc2F)c1` (stereo unspecified), the Ki in series [1] was found to be 22.5 µM. Also, the inhibition at 10 µM was 24.6% in series [7] and 33.7% in series [8].

As to `COc1ccc(C2=N[C@H](c3ccc(Cl)cc3)[C@H](c3ccc(Cl)cc3)N2C(=O)N2CCNC(=O)C2)c(OC(C)C)c1`, the inhibition entry in series [9] and in [10] was “Active” each time. The IC50 was found to be 11.3 µM in [2] and 29.5 µM in series [6]. Also, the inhibition at 10 µM in series [7] stood at 46.5%; in series [8], 49.2%.

With `O=C(c1ccc(Cl)cc1)C(Cc1cccc(Cl)c1)C(=O)c1cc(F)ccc1F` (stereo unspecified), the Ki in [1] worked out at 6.02 µM. The inhibition at 10 µM in series [7] stood at 48.1%; in [8] it was 51.8%.

On to `O=C(c1ccc(Cl)cc1)C(c1ccc(F)cc1Cl)N(C(=O)CCC(=O)N1CCN(CCO)CC1)c1ccc(Cl)cc1` (stereo unspecified), for which the inhibition constant Ki was 0.48 µM in series [1] and 11.6 µM in series [4]. Further, the IC50 was 3.97 µM in series [2], 4.36 µM in series [3], 4.42 µM in series [5] and 15.6 µM in [6].

`O=C(c1ccc(Cl)cc1)C(Cc1cccc(F)c1)C(=O)c1cc(F)ccc1F` (stereo unspecified): the Ki in [1] turned out to be 12.8 µM. Further, the inhibition at 10 µM in series [7] stood at 18.9%; in series [8] it was 14.3%.

For the compound `CN(C)C1CCN(C(=O)CCC(=O)N(c2ccc(Cl)cc2)C(C(=O)c2ccc(Cl)cc2)c2ccc(F)cc2Cl)CC1` (stereo unspecified), the figures for the IC50 at 72 h in series [11] and in series [16] were 16.3 µM and 12.7 µM, respectively. Further, the inhibition result in series [9] and in series [10] was “Active” throughout. The Ki in [1] was 0.28 µM; in series [4], 3.46 µM. Besides, the IC50 in [2] was found to be 0.72 µM; in [3] it was 0.64 µM; in [5], 0.69 µM; in [6] it was 13.6 µM. The inhibition entry in [12], in series [13], in [14] and in [15] was “Dose-Dependent Effect” throughout.

With `COC(=O)c1ccc(NC(=O)CCC(=O)N(c2ccc(Cl)cc2)C(C(=O)c2ccc(Cl)cc2)c2ccc(F)cc2Cl)cc1` (stereo unspecified), the Ki in series [1] came out at 0.96 µM; in [4] it was 29.1 µM. Further, the IC50 in [2] came to 14 µM; in series [3], 13.9 µM; in series [5], 13 µM; in series [6], 23.1 µM.

In the case of `O=C(c1ccc(Cl)cc1)C(Cc1ccc(-c2ccccc2)cc1)C(=O)c1cc(F)ccc1F` (stereo unspecified), the Ki in series [1] was determined as 24.5 µM. Further, the inhibition at 10 µM in series [7] was 13.2%; in series [8], 29.9%.

As to `CC(C)(C)OC(=O)N1CCN(C(=O)CCC(=O)N(c2ccc(Cl)cc2)C(C(=O)c2ccc(Cl)cc2)c2ccc(F)cc2Cl)CC1` (stereo unspecified), the inhibition constant (Ki) in [1] was determined as 0.73 µM; in [4] it was 36.8 µM. The IC50 came to 9.98 µM in series [2], 9.47 µM in series [3], 11.8 µM in series [5] and 17.4 µM in [6].

For the compound `CCOc1cc(/C=C2\C(=O)N(c3ccccc3)N=C2C)cc(Cl)c1OCC(=O)OC`, the Ki in [4] is 0.78 µM. Further, in series [5], the IC50 was 12.9 µM.

The values above are taken from ChEMBL document CHEMBL5360555, “Structure-based discovery of novel α-aminoketone derivatives as dual p53-MDM2/MDMX inhibitors for the treatment of cancer” (Eur J Med Chem, 2023).
